The values below come from PubChem BioAssay AID296 (DTP/NCI, 2004).

In the assay the test system is MX-1 breast xenograft, nude mice, tumor weight T/C. Description: NCI In Vivo Anticancer Drug Screen. Data for tumor model Human Mammary Carcinoma MX-1 Xenograft (intrarenal inoculation) in NU/NU Swiss (nude) mice. Particulars: endpoint: mean tumor weight change, higher = larger tumour. Here is the method:
The antitumor activity of compounds was measured in mice bearing transplantable tumors. Survival or tumor size were measured and the results are expressed as the measurement made in the treated group (T) divided by the measurement made in the vehicle treated control group (C). The tumor model used in this assay is Human Mammary Carcinoma MX-1 Xenograft (intrarenal inoculation) in NU/NU Swiss (nude) mice
On the technique in general: In xenograft studies the graft and the host belong to different species.

[1] abbreviates: dose: 300.0 mg/kg/injection, schedule: Q04DX003 (sc), vehicle: saline with Tween-80.
Where [2] appears, read: dose: 600.0 mg/kg/injection, schedule: Q04DX003 (sc), vehicle: saline with Tween-80.
The mark [3] stands for this setting: dose: 1200.0 mg/kg/injection, schedule: Q04DX003 (sc), vehicle: saline with Tween-80.
[4] abbreviates: dose: 2400.0 mg/kg/injection, schedule: Q04DX003 (sc), vehicle: saline with Tween-80.

Each structure is given as a SMILES string. “And” between values parts separate entries of the source, which are not always exact repeats. Equal entries are not always repeated. Inconclusive results are not listed.

Turning to `C/C=C/C=C1/OC(C)=C(C(C)=O)C1=O`, the T/C by setting is: (dose: 200.0 mg/kg/injection, schedule: Q04DX003 (sc), vehicle: saline with Tween-80) 104 % of control; (dose: 400.0 mg/kg/injection, schedule: Q04DX003 (sc), vehicle: saline with Tween-80) 85 % of control.
For the molecule `O=NNc1ccc(Cl)cn1`, the T/C was 24 % of control (dose: 18.7 mg/kg/injection, schedule: Q04DX003 (ip), vehicle: water) and -51 % of control (dose: 37.5 mg/kg/injection, schedule: Q04DX003 (ip), vehicle: water).
On to `CC[C@H]1CN2CCc3cc(OC)c(OC)cc3[C@@H]2C[C@@H]1C[C@H]1NCCc2cc(OC)c(OC)cc21`, for which the T/C is, setting by setting: (dose: 2.0 mg/kg/injection, schedule: Q01DX010 (sc), vehicle: saline) 114 % of control; (dose: 4.0 mg/kg/injection, schedule: Q01DX010 (sc), vehicle: saline) 108 % of control.
For the molecule `Clc1ccc(C(c2ccccc2Cl)C(Cl)Cl)cc1` (stereo not drawn), the T/C was 85 % of control (dose: 1200.0 mg/kg/injection, schedule: Q04DX003 (sc), vehicle: saline); 98 % of control (dose: 2400.0 mg/kg/injection, schedule: Q04DX003 (sc), vehicle: saline); 83 % of control (dose: 4800.0 mg/kg/injection, schedule: Q04DX003 (sc), vehicle: saline); 39 % of control (dose: 9600.0 mg/kg/injection, schedule: Q04DX003 (sc), vehicle: saline).
As for `CCCCCn1c(C)cc(/C=C\c2ccc3cc(C)ccc3[n+]2C)c1C`, the T/C reads like this: (dose: 0.38 mg/kg/injection, schedule: Q04DX003 (sc), vehicle: Klucel (hydroxypropylcellulose) (HPC)) 174 % of control; (dose: 0.75 mg/kg/injection, schedule: Q04DX003 (sc), vehicle: Klucel (hydroxypropylcellulose) (HPC)) 62 % of control; (dose: 1.5 mg/kg/injection, schedule: Q04DX003 (sc), vehicle: Klucel (hydroxypropylcellulose) (HPC)) 109 % of control; (dose: 3.0 mg/kg/injection, schedule: Q04DX003 (sc), vehicle: Klucel (hydroxypropylcellulose) (HPC)) 74 % of control.
Take `CC(=O)[C@]1(O)Cc2c(O)c3c(c(O)c2[C@@H](OC2CC(N)C(O)C(C)O2)C1)C(=O)c1c(O)cccc1C3=O` (stereo partly drawn): the T/C was 167 % of control (dose: 0.25 mg/kg/injection, schedule: Q01DX010 (sc), vehicle: saline) and 68 % of control (dose: 0.5 mg/kg/injection, schedule: Q01DX010 (sc), vehicle: saline).
For `COc1cc(C(=O)N/N=C/c2cccc([N+](=O)[O-])c2)cc(OC)c1OC`, the T/C is 178 % of control (dose: 150.0 mg/kg/injection, schedule: Q04DX003 (sc), vehicle: saline with Tween-80); 114 % of control under setting [1]; 67 % of control under setting [2]; 108 % of control under setting [3].
Consider `CC(CN1CC(=O)NC(=O)C1)N1CC(=O)NC(=O)C1` (stereo not drawn), for which the T/C is, setting by setting: (dose: 150.0 mg/kg/injection, schedule: Q04DX003 (sc), vehicle: Klucel (hydroxypropylcellulose) (HPC)) 92 % of control; (dose: 300.0 mg/kg/injection, schedule: Q04DX003 (sc), vehicle: Klucel (hydroxypropylcellulose) (HPC)) 64 % of control.
Turning to `CC(=O)OC(C)C1C2=C(C(=O)CC1(C)O)C(=O)c1c(ccc(-c3ccc4c(c3O)C(=O)C3=C(C4=O)C(C(C)OC(C)=O)C(C)(O)CC3=O)c1O)C2=O` (stereo not drawn), the T/C by setting is: (dose: 7.5 mg/kg/injection, schedule: Q04DX003 (sc), vehicle: saline with Tween-80) 33 % of control; (dose: 30.0 mg/kg/injection, schedule: Q04DX003 (sc), vehicle: saline with Tween-80) 98 % of control; (dose: 60.0 mg/kg/injection, schedule: Q04DX003 (sc), vehicle: saline with Tween-80) 96 % of control.
As for `Cc1cc(NCCN(C(C)C)C(C)C)nc(/N=C(\N)Nc2ccc(Cl)c(C(F)(F)F)c2)n1`, the T/C runs as follows: (dose: 80.0 mg/kg/injection, schedule: Q04DX003 (sc), vehicle: Klucel (hydroxypropylcellulose) (HPC)) 64 % of control; (dose: 160.0 mg/kg/injection, schedule: Q04DX003 (sc), vehicle: Klucel (hydroxypropylcellulose) (HPC)) 62 % of control; (dose: 320.0 mg/kg/injection, schedule: Q04DX003 (sc), vehicle: Klucel (hydroxypropylcellulose) (HPC)) 81 % of control.
`CC(=O)NC(Cc1ccc(F)cc1)C(=O)O` (stereo not drawn): the T/C runs as follows: under setting [1], 100 % of control; under setting [2], 101 % of control; under setting [3], 120 % of control; under setting [4], 111 % of control.
Turning to `CC(=O)c1cccc(NC2C(N)C(NC(=O)N(C)C)(C(C)O)C(C)(O)C2(O)COC(=O)c2c(C)cccc2O)c1` (stereo not drawn), the T/C runs as follows: (dose: 6.25 mg/kg/injection, schedule: Q04DX003 (ip), vehicle: suspension in saline) 62 % of control; (dose: 12.5 mg/kg/injection, schedule: Q04DX003 (ip), vehicle: suspension in saline) 85 % of control; (dose: 25.0 mg/kg/injection, schedule: Q04DX003 (ip), vehicle: suspension in saline) 34 % of control.
As to `C[C@@]1(CO)[C@H](O)CC[C@@]2(C)[C@H]1CC[C@H]1C[C@@H]3C[C@@]12CC[C@@]3(O)COC(=O)CN`, the T/C was 102 % of control (dose: 125.0 micrograms/kg/injection, schedule: Q04DX003 (sc), vehicle: saline + alcohol); 34 % of control (dose: 250.0 micrograms/kg/injection, schedule: Q04DX003 (sc), vehicle: saline + alcohol); 55 % of control (dose: 500.0 micrograms/kg/injection, schedule: Q04DX003 (sc), vehicle: saline + alcohol); 70 % of control (dose: 1000.0 micrograms/kg/injection, schedule: Q04DX003 (sc), vehicle: saline + alcohol).
Regarding `N#C[Se-].c1ccc([Te+](c2ccccc2)c2ccccc2)cc1`, the T/C (dose: 3.75 mg/kg/injection, schedule: Q04DX003 (sc), vehicle: Klucel (hydroxypropylcellulose) (HPC)) was 101 % of control; the T/C (dose: 7.5 mg/kg/injection, schedule: Q04DX003 (sc), vehicle: Klucel (hydroxypropylcellulose) (HPC)) was 118 % of control; the T/C (dose: 30.0 mg/kg/injection, schedule: Q04DX003 (sc), vehicle: Klucel (hydroxypropylcellulose) (HPC)) was 75 % of control.
With `CC(=O)OC1C(O)C(C)OC(OC2C(OC(=O)C3CCC4C(C3)OC3(CC(OC(=O)/C=C/c5ccccc5)C(C)CO3)C43CO3)OC(C)C(O)C2OC(C)=O)C1O` (stereo not drawn), the T/C reads like this: (dose: 15.0 mg/kg/injection, schedule: Q04DX003 (sc), vehicle: distilled water + Tween-80) 124 % of control; (dose: 30.0 mg/kg/injection, schedule: Q04DX003 (sc), vehicle: distilled water + Tween-80) 117 % of control; (dose: 60.0 mg/kg/injection, schedule: Q04DX003 (sc), vehicle: distilled water + Tween-80) 73 % of control; (dose: 120.0 mg/kg/injection, schedule: Q04DX003 (sc), vehicle: distilled water + Tween-80) 61 % of control.
As for `O=C(NC(Cc1ccc(I)cc1)C(=O)O)c1ccc(Br)cc1` (stereo not drawn), for the setting “dose: 75.0 mg/kg/injection, schedule: Q04DX003 (ip), vehicle: sodium bicarbonate”, the T/C is -67 % of control.
As to `O=c1cc(-c2ccccc2)[nH]c2c1CCCC2`, the T/C is, setting by setting: under setting [1], 54 % of control; under setting [2], 53 % of control; under setting [3], 65 % of control; under setting [4], 96 % of control.
With `NC(=O)c1csc(C2OC(CO)C(O)C2O)n1` (stereo not drawn), the T/C (dose: 200.0 mg/kg/injection, schedule: Q04DX003 (sc), vehicle: water) is 90 % of control; the T/C (dose: 400.0 mg/kg/injection, schedule: Q04DX003 (sc), vehicle: water) is 96 % of control; the T/C (dose: 800.0 mg/kg/injection, schedule: Q04DX003 (sc), vehicle: water) is 118 % of control.
For the molecule `NC(=O)c1cc(Cl)nc2nc(Cl)nc(N)c12`, the T/C is, setting by setting: (dose: 150.0 mg/kg/injection, schedule: Q04DX003 (ip), vehicle: saline with Tween-80) 112 % of control; (dose: 300.0 mg/kg/injection, schedule: Q04DX003 (ip), vehicle: saline with Tween-80) 108 % of control; (dose: 600.0 mg/kg/injection, schedule: Q04DX003 (ip), vehicle: saline with Tween-80) 90 % of control; (dose: 1200.0 mg/kg/injection, schedule: Q04DX003 (ip), vehicle: saline with Tween-80) 93 % of control.
With `O=c1cc(CCl)[nH]nc1CCl`, the T/C reads like this: (dose: 50.0 mg/kg/injection, schedule: Q01DX010 (sc), vehicle: saline with Tween-80) 77 % of control; (dose: 100.0 mg/kg/injection, schedule: Q01DX010 (sc), vehicle: saline with Tween-80) 42 % of control.
Consider `NC1(C(=O)O)CCCC1`, for which the T/C reads like this: (dose: 12.5 mg/kg/injection, schedule: Q01DX010 (sc), vehicle: saline) 103 % of control; (dose: 50.0 mg/kg/injection, schedule: Q01DX010 (sc), vehicle: saline) 25 % of control and 41 % of control; (dose: 100.0 mg/kg/injection, schedule: Q01DX010 (sc), vehicle: saline) 7 % of control and 8 % of control.
